# From US7098307B2, “Neo-tryptophan” (Mayo Foundation for Medical Education and Research, priority 1998, dated 2006)
# Read-outs that look alike come from different tables or passages of the source. Numbered stars: 1 amine (or outer) side, 2 acyl side, 3 side chain; on linkers, the order of the positions; unused ones are H or OH. Square brackets hold non-standard residues; d marks the D form. Ends that are not written are not given here. Peptide text beside a SMILES is read from it. Ala(indol-4-yl) = N[C@@H](Cc1cccc2[nH]ccc12)C(=O)O; X1 = O=C([C@@H](Cc1cccc2[nH]ccc12)N[*:1])[*:2]; NMeR = CN[C@@H](CCCNC(=N)N)C(=O)O; Tle = CC(C)(C)[C@H](N)C(=O)O; dOrn = NCCC[C@@H](N)C(=O)O; Dab = NCC[C@H](N)C(=O)O
# Columns and labels:
# [1] = Catalepsy bar test in rats; type: in vivo, rat
# Procedure: The following experiments were performed to assess the ability of NT69L to cause and influence catalepsy. Male Sprague-Dawley rats (150–250 g) or CD-1 mice (24–26 g) were housed in a temperature-controlled room in groups of five with free access to food and water. The animals were kept on a 12 hour light/dark cycle, and all tests were performed during the light cycle. […] Thirty minutes after injection, the animals were tested for catalepsy. For rats, the test involved simply placing the animal's fore paws on a suspended metal bar 10 mm in diameter, 11 cm above the counter. The time elapsed until the animal's fore paws touch the counter was recorded. […] The cut-off time was 20 seconds, and each animal was tested three times for each time point.
# human NTR1 = biological target: T1, human NTR1 (Homo sapiens, UniProt P30989); assay: Competition binding with [3H]NT, membranes of CHO-K1 cells transfected with human NTR1
# T1 construct: expressed in transfected cells; host or cells: CHO-K1
# Procedure: (§1) CHO-K1 cells were stably transfected with nucleic acid encoding either the human NTR1 or the rat NTR1, and cultured in 150 mm petri plates with 35 mL of Dulbecco-modified Eagle's medium containing 100 μM minimal essential medium nonessential amino acids (GIBCO) supplemented with 5% (v/v) FetalClone II bovine serum product (Hyclone Labs, Logan, Utah). CHO cells (subculture 9–19) were harvested at confluency. Briefly, the medium from each plate was removed by aspiration, and the cells washed with 6 mL of 50 mM Tris-HCl (pH 7.4) and resuspended in 5–10 mL of Tris-HCl by scraping the cells with a rubber spatula. The resuspended cells were placed into a centrifuge tube and collected by centrifugation at 300× g for five minutes at 4° C. in a GPR centrifuge (Beckman Instruments, Fullerton, Calif.). The cellular pellet (in 50 mM Tris-HCl, 1 mM EDTA, pH 7.4) was stored at […] until radioligand binding was performed.
# (§2) The supernatant was decanted and discarded, and the cellular pellet was resuspended in 2 mL of Tris-HCl, 1 mM EDTA (pH 7.4) followed by homogenization with a Brinkmann Polytron at setting 6 for ten seconds. Centrifugation was repeated as above and the supernatant was decanted and discarded. The resulting final cellular pellet was resuspended in 50 mM Tris-HCl, lmM EDTA, 0.1% bovine serum albumin, and 0.2 mM bacitracin.
# (§3) Incubation was at 20° C. for 30 minutes. Each reaction was terminated by addition of cold 0.9% NaCl (5×1.5 mL) followed by rapid filtration through a GF/B filter strip that had been pretreated with 0.2% polyethylenimine.
# 5HT2A receptor = 5HT2A receptor (Homo sapiens, UniProt P28223); assay: Competitive binding with [3H]ketanserin, human brain tissue; details: for competition with labeled ketanserin for binding at the 5HT2A receptor: human brain tissue
# [2] = Degradation in human plasma (HPLC peak area); type: in vitro ADME; details: for half-life at 0.5 mg/mL: human
# Excerpt: (§4) For the degradation studies, data were plotted in linear form as a semi-log plot with SigmaPlot for Windows Version 4.00. Linear regression on these plots provided the parameters used to calculate the half-time (t1/2) for degradation of each polypeptide. The correlation coefficient (R) for the linear regression was taken as a measure of the goodness-of-fit.
# [3] = Hot plate test (antinociception, % MPE) in rats; details: for peak % MPE value: 18 nmol injected into the PAG, at 30 minutes; for induction of antinociception (hot plate): intraperitoneal administration (NT64L 1 mg/kg); for Peak % MPE / time of Peak % MPE: rats
# [4] = Body temperature (hypothermia) in rats; details: for peak body temperature reduction: 18 nmol injected into the PAG, at 30 minutes; for induction of hypothermia: intraperitoneal administration (NT64L 1 mg/kg); for Peak BT change / time of Peak BT change: rats
# rat NTR1 = biological target: T2, rat NTR1 (Rattus norvegicus, UniProt P20789); assay: Competition binding with [3H]NT, membranes of CHO-K1 cells transfected with rat NTR1
# T2 construct: expressed in transfected cells; host or cells: CHO-K1
# Procedure: as §1, §2, §3
# [5] = Degradation in rat intestinal preparation; type: in vitro ADME; details: pH 7.4, 37° C., read-out: half-time, Rat Intestinal Preparation (converted)
# Procedure: For intestinal preparations, rats were sacrificed by decapitation, and the small intestines removed. The tissue was washed with ice-cold PBS (10 mM, pH 7.4). About […] of intestinal tissue was added to about 10 mL of PBS and homogenized using a Brinkman polytron homogenizer (setting 6). After homogenization, 10 mL of PBS was added to 10 mL of the intestinal homogenate. […] The supernatant was removed and stored at −20° C. until testing. Immediately before incubation with the polypeptide, the intestinal preparation was filtered through a 0.2 μm filter. Testing procedures were similar to those for the plasma tests.
# as §4
# [6] = Degradation in rat plasma (HPLC peak area); type: in vitro ADME
# Excerpt: as §4
# [7] = CHO cells, read-out: Kd hNTR (Table VII)
# [8] = 25% plasma, 37° C., 0.5 mg/mL polypeptide, read-out: half-time, Plasma Human (converted)
# [9] = 0.5 mg/kg intraperitoneal (footnote)
molecule,measurement,setting,value
"CN1CCN(C2=Nc3cc(Cl)ccc3Nc3ccccc32)CC1 [Clozapine, reference compound]",catalepsy,[1]; 20 mg/kg ip,did not cause catalepsy
same,Kd,human NTR1; [7],> 100 µM
"O=C(CCCN1CCC(O)(c2ccc(Cl)cc2)CC1)c1ccc(F)cc1 [Haloperidol, reference compound]",catalepsy,[1]; 1 mg/kg ip,profound catalepsy
same,ED50 at 30 min,"[1]; male, Sprague-Dawley, rat, in vivo, ip, at 30 minutes, read-out: ED50 haloperidol-induced catalepsy",0.13 mg/kg
same,ED50 at 60 min,"[1]; male, Sprague-Dawley, rat, in vivo, ip, at 60 minutes, read-out: ED50 haloperidol-induced catalepsy",0.26 mg/kg
same,ED50 at 180 min,"[1]; male, Sprague-Dawley, rat, in vivo, ip, at 180 minutes, read-out: ED50 haloperidol-induced catalepsy",0.31 mg/kg
"N[C@@H](Cc1cccc2[nH]ccc12)C(=O)O [L-neo-Trp, (2S)-2-amino-3-(1H-4-indolyl)propanoic acid]",binding to human NT receptors from CHO cells,human NTR1,does not bind
same,Kd,human NTR1; [7],> 100 µM
same,Kd,5HT2A receptor,> 100 µM
same,competition with labeled ketanserin for binding at the 5HT2A receptor,5HT2A receptor,did not compete
"CC[C@H](C)[C@H](NC(=O)[C@H](Cc1ccc(O)cc1)NC(=O)[C@@H]1CCCN1C(=O)[C@H](CCCNC(=N)N)NC(=O)[C@H](N)CCCCN)C(=O)N[C@@H](CC(C)C)C(=O)O [NT2, reference compound] (H-[dK]RPYIL-OH; N-terminus and C-terminus assumed)","half-time, Plasma Human",[2],about 0.85 hours
same,half-life at 0.5 mg/mL,[2]; plasma,0.85 h
same,competition with labeled ketanserin for binding at the 5HT2A receptor,5HT2A receptor,found to compete
CC[C@H](C)[C@H](NC(=O)[C@H](Cc1cccc2[nH]ccc12)NC(=O)[C@@H]1CCCN1C(=O)[C@H](CCCNC(=N)N)NC(=O)[C@@H](N)CCCNC(=N)N)C(=O)N[C@@H](CC(C)C)C(=O)O [NT64L],peak % MPE value,[3],76%
same,induction of antinociception (hot plate),[3],did not induce
same,half-life at 0.5 mg/mL,[2]; [8],1.4 h
same,peak body temperature reduction,[4],2.1 °C
same,induction of hypothermia,[4],did not induce
same,Kd,5HT2A receptor,6.6 µM
same,competition with labeled ketanserin for binding at the 5HT2A receptor,5HT2A receptor,found to compete
CC(C)C[C@H](NC(=O)[C@@H](NC(=O)[C@H](Cc1cccc2[nH]ccc12)NC(=O)[C@@H]1CCCN1C(=O)[C@H](CCCNC(=N)N)NC(=O)[C@@H](N)CCCNC(=N)N)C(C)(C)C)C(=O)O [NT65L] (H-RRP[Ala(indol-4-yl)][Tle]L-OH; N-terminus and C-terminus assumed),half-life at 0.5 mg/mL,[2]; plasma,1.1 h
same,reduction in binding affinity compared to NT64L,human NTR1; NT receptor binding,3 fold
CC(C)C[C@H](NC(=O)[C@@H](NC(=O)[C@@H](Cc1cccc2[nH]ccc12)NC(=O)[C@@H]1CCCN1C(=O)[C@H](CCCNC(=N)N)NC(=O)[C@H](N)CCCCN)C(C)(C)C)C(=O)O [NT66D] (H-[dK]RP[X1][Tle]L-OH; N-terminus and C-terminus assumed),Peak % MPE,[3]; [9],58% @
same,time of Peak % MPE,[3]; [9],30 min
same,induction of antinociception (hot plate),[3],did induce
same,Kd,rat NTR1,0.077 ± 0.009 µM
same,Peak BT change,[4]; [9],−1.0 @ ° C.
same,time of Peak BT change,[4]; [9],30 min
same,induction of hypothermia,[4],did induce
same,Kd,human NTR1,0.21 ± 0.02 µM
CN[C@@H](CCCNC(=N)N)C(=O)N[C@@H](CCN)C(=O)N1CCC[C@H]1C(=O)N[C@@H](Cc1cccc2[nH]ccc12)C(=O)N[C@H](C(=O)N[C@@H](CC(C)C)C(=O)O)C(C)(C)C [NT71] (H-[NMeR][Dab]P[Ala(indol-4-yl)][Tle]L-OH; N-terminus and C-terminus assumed),Peak % MPE,[3]; 1 mg/kg intraperitoneal,70% @
same,time of Peak % MPE,[3]; 1 mg/kg intraperitoneal,60 min
same,Peak % MPE,[3]; 5 mg/kg intraperitoneal,79% @
same,time of Peak % MPE,[3]; 5 mg/kg intraperitoneal,180 min
same,induction of antinociception (hot plate),[3],did induce
same,Peak BT change,[4]; 1 mg/kg intraperitoneal,−2.0 @ ° C.
same,time of Peak BT change,[4]; 1 mg/kg intraperitoneal,40 min
same,Peak BT change,[4]; 5 mg/kg intraperitoneal,−2.4 @ ° C.
same,time of Peak BT change,[4]; 5 mg/kg intraperitoneal,90 min
same,induction of hypothermia,[4],did induce
same,half-life,[5],5.1 h
same,half-life at 0.5 mg/mL,"[6]; 25% plasma, 37° C., 0.5 mg/mL polypeptide, read-out: half-time, Plasma Rat (converted)",260 h
CC(C)C[C@H](NC(=O)[C@@H](NC(=O)[C@H](Cc1cccc2[nH]ccc12)NC(=O)[C@@H]1CCCN1C(=O)[C@H](N)CCCCN)C(C)(C)C)C(=O)O [NT72] (H-[dK]P[Ala(indol-4-yl)][Tle]L-OH; N-terminus and C-terminus assumed),Peak % MPE,[3]; 5 mg/kg intraperitoneal,100% @
same,time of Peak % MPE,[3]; 5 mg/kg intraperitoneal,120 min
same,induction of antinociception (hot plate),[3],did induce
same,Kd,rat NTR1,0.27 ± 0.03 µM
same,half-life at 0.5 mg/mL,[2]; [8],3000 h
same,Peak BT change,[4]; 5 mg/kg intraperitoneal,−2.8 @ ° C.
same,time of Peak BT change,[4]; 5 mg/kg intraperitoneal,180 min
same,induction of hypothermia,[4],did induce
same,Kd,human NTR1,0.64 µM
same,half-life,[5],54 h
CC[C@H](C)[C@H](NC(=O)[C@H](Cc1cccc2[nH]ccc12)NC(=O)[C@@H]1CCCN1C(=O)[C@H](N)CCCCN)C(=O)N[C@@H](CC(C)C)C(=O)O [NT73] (H-[dK]P[Ala(indol-4-yl)]IL-OH; N-terminus and C-terminus assumed),Peak % MPE,[3]; 5 mg/kg intraperitoneal,40% @
same,time of Peak % MPE,[3]; 5 mg/kg intraperitoneal,120 min
same,induction of antinociception (hot plate),[3],did induce
same,Kd,rat NTR1,0.032 ± 0.006 µM
same,half-life at 0.5 mg/mL,[2]; [8],300 h
same,Peak BT change,[4]; 5 mg/kg intraperitoneal,−0.9 @ ° C.
same,time of Peak BT change,[4]; 5 mg/kg intraperitoneal,90 min
same,induction of hypothermia,[4],did induce
same,Kd,human NTR1,0.045 ± 0.003 µM
same,half-life,[5],0.83 h
CC(C)C[C@H](NC(=O)[C@@H](NC(=O)[C@H](Cc1cccc2[nH]ccc12)NC(=O)[C@@H]1CCCN1C(=O)[C@@H](N)CCN)C(C)(C)C)C(=O)O [NT74] (H-[Dab]P[Ala(indol-4-yl)][Tle]L-OH; N-terminus and C-terminus assumed),half-life at 0.5 mg/mL,[6]; plasma,110 h
CC[C@H](C)[C@H](NC(=O)[C@H](Cc1cccc2[nH]ccc12)NC(=O)[C@@H]1CCCN1C(=O)[C@@H](N)CCN)C(=O)N[C@@H](CC(C)C)C(=O)O [NT75] (H-[Dab]P[Ala(indol-4-yl)]IL-OH; N-terminus and C-terminus assumed),half-life,[5],0.27 h
same,half-life at 0.5 mg/mL,[6]; plasma,1.6 h
"NCCc1c[nH]c2ccc(O)cc12 [Serotonin, reference compound]",Kd,"rat NTR1; CHO cells, read-out: Kd rNTR (Table VII)",> 100 µM
same,Kd,human NTR1; [7],> 100 µM
NT24″27″: L-Arg-D-Orn-L-Pro-L-Tyr-L-Ile-L-Leu (R[dOrn]PYIL) [reference compound],peak % MPE value,[3],20%
same,induction of antinociception (hot plate),[3],did not induce
same,peak body temperature reduction,[4],1.1 °C
same,induction of hypothermia,[4],did not induce
